1 molecule from patent publication US8188148B2, “Substituted 1,3-diphenylpropane derivatives, preparations and uses thereof” (Genfit, priority 2006, dated 2012) can be followed below.

The test deals with PPARs target genes (PDK4, ApoCIII). As to the kind of experiment: Hepatic gene expression by quantitative RT-PCR in E2/E2 mouse. It counts as in vivo. The settings on record: E2/E2 mouse, 5, 10, and 50 mpk, 8 days, normalized to 36B4. The procedure: The effectiveness of the compounds according to the invention is also evaluated by measuring, in the hepatic tissue, the expression of genes involved in lipid and/or glucid metabolism and in energy dissipation. Each level of gene expression is normalized regarding the expression level of the reference gene 36B4. The induction factor, i.e. the ratio between the relative signal (induced by the compound according to the invention) and the average of the relative values obtained with the control group, is then calculated. The higher the induction factor is, the more the compound promotes hepatic gene expression. […]
The agonist properties of PPARα previously measured in vitro should, in the liver, lead to an over-expression of the target genes directly under the control of the PPARα. […]
Gene expression analysis by quantitative RT-PCR Total RNA is extracted from liver fragments by using a NucleoSpin® 96 RNA kit (Macherey Nagel, Hoerdt, France) according to the manufacturer's instructions.
1 μg of total RNA (quantified by using the Ribogreen RNA quantification kit (Molecular Probes)) is then reverse-transcribed into complementary DNA by means of a 1 hour reaction at 37° C. in a total volume of 20 μl containing a 1× buffer (Sigma), 1.5 mM of DTT, 0.18 mM of dNTPs (Promega), 200 ng of pdN6 (Amersham), 30 U of RNase inhibitor (Sigma), and 1 μl of MMLV-RT (Sigma). […]

For the molecule `Cc1cc(CCC(=O)c2ccc(OC(F)(F)F)cc2)cc(C)c1OC(C)(C)C(=O)O` [Compound 1, 2-[2,6-dimethyl-4-[3-[4-(trifluoromethyloxy)phenyl]-3-oxo-propyl]phenoxy]-2-methyl-propanoic acid], the “hepatic expression of the gene coding for ApoCIII” value was “reduction” and the “hepatic expression of the gene coding for PDK4” value is recorded as “significant increase”.
